Test results reported in a melting point compilation (Tetko et al.; mined from patent text by program, amines drawn as free bases though some values may be those of a salt).

Row | melting point [°C] | Compound
1 | 234 to 235 | COC(=O)C1=C(C)NC(C)=C(C#N)C1c1cccc(N)c1 (stereo unspecified)
2 | 102 to 105 | NC(=O)c1ccccc1OCC1CC1
3 | 167 to 169 | OC(c1ccccc1)(c1ccc(C(F)(F)F)cc1)c1nccn1Cc1ccccc1 (stereo unspecified)
4 | 61 to 62 | ClCCC1(CCCl)c2ccccc2Sc2ccccc21
5 | 258 | Cc1ccc(C(=O)Nc2ccc3ccc(Cl)nc3n2)nn1
6 | 257 to 259 | Cn1cc(C2(c3c4n(c5ccccc35)CCCCC4)CC(=O)OC2=O)c2ccccc21 (stereo unspecified)
7 | 223 to 225 | CC(=O)c1ccc(-n2c(-c3sc(Nc4ccccc4)nc3-c3ccccc3)nc3ccccc3c2=O)cc1
8 | > 300 | O=C1c2ccccc2C(=O)c2c1nc1ccc(Cl)cn21
9 | 90 to 91 | COC(=O)CCc1nc(-c2cccc(NC(=O)OC(C)(C)C)c2)no1
10 | 35 to 38 | CCN(CC)CCCCOc1ccc(-c2nnc(CSCCOc3ccccc3)o2)cc1
11 | 164 | COC(=O)c1scc(-c2ccccc2)c1-c1ccc(S(C)=O)c(F)c1 (stereo unspecified)
12 | 204 | OC(c1ccccc1)(c1ccccc1)C(c1ccc(OCc2ccccc2)cc1)n1ccnc1 (stereo unspecified)
13 | 124 to 126 | CC(=O)c1c(N)c(-c2ccccc2)n(C)c1C
14 | 146 to 148 | O=C(NC1CCN(CCC2CCOc3ccccc32)CC1)c1cc2ccccc2o1 (stereo unspecified)
15 | 128 to 129 | COC(=O)c1c(-c2ccccc2Cl)c2cc(C)cc(C)c2n(C)c1=O
16 | 210 to 220 | CC(Oc1ccc2nc(-c3ccccc3OC(N)=O)sc2c1)c1c(F)ccc(Cl)c1Cl (stereo unspecified)

Row | melting point [°C] | Compound
17 | 159 to 164 | CC(=O)CC(=O)Nc1ccc(-c2ncn(-c3ccc(OC(F)(F)F)cc3)n2)cc1
18 | 133 to 134 | COc1ccc2nc(-c3cccc(C)c3)cc(OCc3ccccc3)c2c1
19 | 195 to 196 | C=C(C)C(=O)Nc1cccc(OC(=O)Nc2cccc3ccccc23)c1
20 | 93.5 to 95 | COC(=O)c1ccccc1C1CC(c2ccccc2)=NO1 (stereo unspecified)
21 | 213 to 214 | COc1ccc(CC(=O)Nc2cc(-c3c(-c4cccc(C)c4)nc4cccnn34)ccn2)cc1
22 | 127 | CC(C)CCNC(=O)c1ccccc1-c1ccccc1CNS(=O)(=O)c1ccccc1
23 | 102 to 104 | CC1(C)c2cc(OS(C)(=O)=O)ccc2OC1OC(=O)c1ccccc1 (stereo unspecified)
24 | 120 to 122 | CC(C)CCOCc1cccc(N2N=C(C(N)=O)NC2c2ccccc2F)c1 (stereo unspecified)
25 | 185 to 186 | C#CC1(C)OC(=O)Nc2ccc(-c3cccc(Cl)c3)cc21 (stereo unspecified)
26 | 254 to 256 | Cc1c(F)cccc1C(=O)Nc1ccc(C(=O)N2Cc3ccccc3Cc3ccccc32)cc1Cl
27 | 188 to 190 | NC(=S)Nc1ccc(F)cc1-c1ccccc1
28 | 128 to 130 | CNC(=O)c1cccc(C(=O)OC)c1
29 | 79 to 80 | N#Cc1cc(Cc2ccccc2Cl)ccc1N
30 | 91 to 92 | O=C(CCc1ccccc1)N[C@H](Cc1ccc(C(F)(F)F)o1)[C@@H](O)c1ccc(F)cc1 (racemic)
31 | 178 to 182 | CCOC(=O)C1(C)C(=O)Nc2cc3[nH]c(-c4ccccc4)nc3cc21 (stereo unspecified)
32 | 100 to 102 | COC(=O)/C=C/C=C(c1ccccc1OC)c1ccccc1OC

Further lines, the compound ahead of its results:

Row | Compound | melting point [°C]
33 | Cn1nc(-c2cc([N+](=O)[O-])cc([N+](=O)[O-])c2)cc1O | 230 to 231
34 | CCCCSc1nc(=O)n(C(=O)NC)s1 | 102
35 | CC(N)CCc1ccc(C(N)=O)s1 (racemic) | 65 to 75
36 | CCCCCCCCCCCC[C@]1(C)OO[C@@H]2C[C@H]1CC(=O)[C@@H]2C | 35
37 | CC(=O)n1cc(Cl)c(-c2cccc(Cl)c2Cl)c1 | 97
38 | O=C1OC2CCC1CC2 | 125 to 126
39 | Nc1ccc(O)c2c1C(=O)c1c(N)ccc(O)c1C2=O | 290
40 | CC(C)(SCCCCCCNS(=O)(=O)c1ccc(Cl)cc1)C(=O)O | 93 to 94
41 | FC(F)c1cc(-c2cccc(C(F)(F)F)c2)nc2c(I)cnn12 | 130
42 | COc1cc(C)cc(-c2nn(CC#N)cc2-c2ccnc(S(C)(=O)=O)n2)c1 | 238
43 | COP(=O)(OC)c1cc(Oc2c(Cl)cc(C(F)(F)F)cc2Cl)ccc1[N+](=O)[O-] | 106 to 107
44 | CCN1C(=O)C(N(CC(F)(F)C(F)(F)F)C(=O)C(C)C(N)=O)COc2ccccc21 (stereo unspecified) | 152
45 | N#CC1CN(C(=O)[C@H](NC(=O)c2c[nH]c3ncc(-c4ccc(C(F)(F)F)cc4)nc23)C2CC2)C1 | 207 to 209
46 | NCc1c(-c2ccc(O)cc2)nnn1-c1ccc(C(F)(F)F)cc1Cl | 96.5 to 98.9
47 | Nc1nc(/C(=N/OCC(=O)N2CCCCC2)C(=O)O)cs1 | 177
48 | CCCOc1c(OC)cc(NC(C)CCCN2C(=O)c3ccccc3C2=O)c2ncccc12 (stereo unspecified) | 140 to 143
49 | CCCC(=O)Nc1ccc(-n2cc(CCCOc3c(CC(=O)O)cccc3OC)c(C(C)C)n2)nc1 | 119 to 120
50 | CCOC(=O)c1ncn2c1CN(C)C(=S)c1cc(F)ccc1-2 | 157 to 159
51 | OC(c1ccc(F)cc1)C1CC2CCN1CC2 (stereo unspecified) | 69 to 70
52 | OCCCc1ccc(Nc2c(-c3nnc(NCCN4CCOCC4)o3)ccc(F)c2F)c(F)c1 | 102 to 106

Row | Compound | melting point [°C]
53 | CCOc1ccc(C[C@@H](NC(=O)[C@H]2CC[C@H](C(C)C)CC2)C(=O)O)cc1 | 149 to 151
54 | O=C(O)c1ccc(CCCOCCCCCCBr)s1 | 93 to 95
55 | COc1c(C)cnc(CSc2nc3cc(C(F)(F)F)ccc3[nH]2)c1C | 163
56 | CC(=O)OC1CC2(C)C(CCC23OCCO3)C2CC=C3CC(O)CCC3(C)C12 (stereo unspecified) | 125 to 126
57 | CC(C)(CC(O)(Cn1ccc2c1CCCC2=O)C(F)(F)F)c1cccc2c1OCC2 (stereo unspecified) | 145 to 146
58 | Cc1ncc([N+](=O)[O-])n1CCN1C(=O)CC(C)(C)CC1=O | 153 to 154
59 | Cn1nc(C(O)c2ccccn2)nc1NCCCOc1cccc(CN2CCCCC2)c1 (stereo unspecified) | 152 to 154
60 | CCCCC1(C2CCCC2)Cc2cc(O)c(Cl)c(Cl)c2C1=O (stereo unspecified) | 160
61 | CCCS(=O)(=O)c1ccccc1S(N)(=O)=O | 122 to 124
62 | O=c1c(Cl)coc2cc(OCCCCl)ccc12 | 101 to 103
63 | CN1CC=C(c2cccc3[nH]ccc23)CC1 | 164
64 | O=C1CN(C/C=C/c2ccc(Cl)cc2)CCN1c1cc(F)ccc1[N+](=O)[O-] | 57
65 | CC(C)(C)C(=O)Nc1nc(O)c2c(C#C[Si](C)(C)C)c[nH]c2n1 | > 300
66 | O=C1N(Cc2sccc2Cl)c2ccccc2C12COc1cc3c(cc12)OCO3 (stereo unspecified) | 161 to 163
67 | CCCN1CC[C@@H]2CC(=O)c3cc(F)ccc3[C@@H]2C1 (relative stereo) | > 220
68 | C#CCc1c(C)nc2c(OCc3c(C)cccc3NC(=O)C(C)O)cccn12 (stereo unspecified) | 186 to 188
69 | OC(c1ccc(Br)cc1)(c1ccc(Br)cc1)c1cncnc1 | 89 to 90
70 | O=C1C(=Cc2cccc(Cl)c2)SC(c2cccc(Cl)c2)N1CCCN1CCCCC1 (stereo unspecified) | 137 to 139
71 | CC(C)CCOc1c(-c2ccc(S(C)(=O)=O)cc2)cnn(-c2cccc(Cl)c2)c1=O | 134 to 135
